Literature values as cited in patent US20100209495A1, “GRANULATES, PROCESS FOR PREPARING THEM AND PHARMACEUTICAL PRODUCTS CONTAINING THEM” (Mylan Laboratories, Inc., priority 2008, published 2010).

Details: at 37° C.

- water solubility: 5 mg/1000 ml
SMILES: CC(O)(CS(=O)(=O)c1ccc(F)cc1)C(=O)Nc1ccc(C#N)c(C(F)(F)F)c1 (stereo not shown) [bicalutamide, N-[4-cyano-3-(trifluoromethyl)phenyl]-3-(4-fluorophenyl) sulfonyl-2-hydroxy-2-methyl-propanamide]
